Source: US7531555B2, “Compositions and methods for selective inhibition of nicotine acetylcholine receptors” (University of Florida Research Foundation, Inc., priority 2003, dated 2009)
Values joined by “and” are separate entries in the source; they are usually repeats but may differ in a detail not shown here. Identical values can stand only once. Like-named read-outs stand apart in the source and are kept apart here.

Assays:
Format in all cases: cell-based
[1] = biological target: T1, α7 homomeric neuronal nAChR (Rattus norvegicus, UniProt Q05941); experiment: Voltage clamp of Xenopus oocytes expressing α7 nAChR
T1 construct: expressed in transfected cells; host or cells: Xenopus laevis oocytes injected with cRNA; clone from Dr. Jim Boulter (UCLA)
Experimental: (§1) Mature (>9 cm) female Xenopus laevis African frogs (NASCO, Ft. Atkinson, Wis.) were used as a source of oocytes. Prior to surgery, frogs were anesthetized by placing the animal in a 1.5 g/l solution of MS222 (3-aminobenzoic acid ethyl ester) for 30 minutes. Oocytes were removed from an incision made in the abdomen.
(§2) In order to remove the follicular cell layer, harvested oocytes were treated with 1.25 mg/ml collagenase from Worthington Biochemical Corporation (Freehold, N.J.) for 2 hours at room temperature in calcium-free Barth's solution (88 mM NaCl, 10 mM HEPES pH 7.6, 0.33 mM MgSO4, 0.1 mg/ml gentamicin sulfate). Subsequently, stage 5 oocytes were isolated and injected with 50 nl (5-20 ng) each of the appropriate subunit cRNAs. Recordings were made 2 to 15 days after injection.
(§3) Rat neuronal nAChR clones and mouse muscle nAChR cDNA clones were used. The wild-type clones were obtained from Dr. Jim Boulter (UCLA). The rat α6/3 (Dowell et al. J Neurosci, 2003, 23:8445-8452) clone was obtained from Michael McIntosh (University of Utah) and expressed in Xenopus oocytes in combinations with rat β2 and β3. […] The TM2 domain is understood to line the pore of the channel, with alpha helix structure. The 7′ position may actually be directed away from the actual pore lining, but this residue is highly conserved in all of the nAChR. It is valine in all of them except α9 (isoleucine) and β1, where it is alanine. The TM2 mutation in the α6/3 chimera was corrected by using QuickChange (Stratagene) according to their protocols. The corrected α6/3 chimera sequence was confirmed by restriction diagnostics and by automated fluorescent sequencing (University of Florida core facility). The corrected clone was expressed as above in Xenopus oocytes with β2 and β3 and compared to the wild-type α3 co-expressed with β2 and β3.
(§4) After linearization and purification of cloned cDNAs, RNA transcripts were prepared in vitro using the appropriate mMessage mMachine kit from Ambion Inc. (Austin, Tex.).
(§5) Electrophysiology. The majority of experiments were conducted using OpusXpress 6000A (Axon Instruments, Union City Calif.). OpusXpress is an integrated system that provides automated impalement and voltage clamp of up to eight oocytes in parallel. Cells were automatically perfused with bath solution, and agonist solutions were delivered from a 96-well plate. Both the voltage and current electrodes were filled with 3 M KCl. The agonist solutions were applied via disposable tips, which eliminated any possibility of cross-contamination. Drug applications alternated between ACh controls and experimental applications. Flow rates were set at 2 ml/min for experiments with α7 receptors and 4 ml/min for other subtypes. Cells were voltage-clamped at a holding potential of −60 mV. Data were collected at 50 Hz and filtered at 20 Hz. Agonist applications were 12 seconds in duration followed by 181-second washout periods for α7 receptors and 8 seconds with 241-second wash periods for other subtypes. For some experiments, particularly under conditions where residual inhibition precluded making repeated measurements from single cells (see below), manual oocyte recordings were made as previously described (Papke and Papke Br J of Pharmacol, 2002, 137:49-61). In brief, Warner Instruments (Hamden, Conn.) OC-725C oocyte amplifiers were used, and data were acquired with a minidigi or digidata 1200A with pClamp9 software (Axon Instruments). Sampling rates were between 10 and 20 Hz and the data were filtered at 6 Hz. Cells were voltage clamped at a holding potential of −50 mV.
(§6) Experimental protocols and data analysis. Each oocyte received two initial control applications of ACh, an experimental drug application (or co-application of ACh and TMPH), and then follow-up control application(s) of ACh. The control ACh concentrations for α1β1γδ, α3β4, α4β2, α3β2, α3β2α5, α3β2β3, α6/3β2β3 α6β4β3 and α7, receptors were 30 μM, 100 μM, 10 μM, 30 μM, 1 μM 100 μM 100 μM 100 μM and 300 μM, respectively. […]

Rat α3β4 = biological target: T2, Rat α3β4 (Rattus norvegicus, UniProt P04757+P12392); experiment: Voltage clamp of Xenopus oocytes expressing α3β4 nAChR
T2 construct: expressed in transfected cells; host or cells: Xenopus laevis oocytes injected with subunit cRNAs; clones from Dr. Jim Boulter (UCLA)
Experimental: as §1, §2, §3, §4, §5, §6

Rat α4β2 = biological target: T3, Rat α4β2 (Rattus norvegicus, UniProt P09483+P12390); experiment: Voltage clamp of Xenopus oocytes expressing α4β2 nAChR
T3 construct: expressed in transfected cells; host or cells: Xenopus laevis oocytes injected with subunit cRNAs; clones from Dr. Jim Boulter (UCLA)
Experimental: as §1, §2, §3, §4, §5, §6

[2] = biological target: T4, mouse muscle-type (α1β1εδ) nAChR (Mus musculus, UniProt P02716+P04756+P09690+P20782); experiment: Voltage clamp of Xenopus oocytes expressing muscle-type nAChR
T4 construct: expressed in transfected cells; host or cells: Xenopus laevis oocytes injected with subunit cRNAs; clones from Dr. Jim Boulter (UCLA)

[3] = inhibition still present after 5-minute wash, read-out: IC50 (recovery)

T1 sequence (Q05941 23-502): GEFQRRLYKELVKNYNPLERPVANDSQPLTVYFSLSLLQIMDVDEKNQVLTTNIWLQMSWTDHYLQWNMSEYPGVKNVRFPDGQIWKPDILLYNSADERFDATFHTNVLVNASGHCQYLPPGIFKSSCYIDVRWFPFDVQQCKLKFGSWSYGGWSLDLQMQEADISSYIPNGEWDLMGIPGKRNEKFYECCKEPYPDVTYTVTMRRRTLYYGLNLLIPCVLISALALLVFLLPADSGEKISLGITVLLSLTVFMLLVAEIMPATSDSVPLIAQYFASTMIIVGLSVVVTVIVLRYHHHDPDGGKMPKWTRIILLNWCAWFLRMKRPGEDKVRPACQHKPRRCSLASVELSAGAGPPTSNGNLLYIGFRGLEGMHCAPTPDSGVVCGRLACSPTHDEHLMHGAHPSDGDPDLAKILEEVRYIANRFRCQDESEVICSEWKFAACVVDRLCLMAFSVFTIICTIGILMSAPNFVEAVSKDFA
T4 sequence (P04756 21-457): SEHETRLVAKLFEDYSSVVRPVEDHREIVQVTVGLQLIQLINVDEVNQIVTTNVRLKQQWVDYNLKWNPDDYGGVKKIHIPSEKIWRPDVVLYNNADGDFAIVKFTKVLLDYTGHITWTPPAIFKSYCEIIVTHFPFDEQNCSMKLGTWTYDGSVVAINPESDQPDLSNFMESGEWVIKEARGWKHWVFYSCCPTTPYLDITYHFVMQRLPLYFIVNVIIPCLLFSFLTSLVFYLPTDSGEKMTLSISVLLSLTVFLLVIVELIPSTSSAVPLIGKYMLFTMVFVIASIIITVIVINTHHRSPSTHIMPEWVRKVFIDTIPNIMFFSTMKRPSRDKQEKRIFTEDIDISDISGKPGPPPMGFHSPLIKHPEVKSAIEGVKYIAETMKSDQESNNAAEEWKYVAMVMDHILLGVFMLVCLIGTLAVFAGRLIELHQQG
T4 sequence (P09690 24-501): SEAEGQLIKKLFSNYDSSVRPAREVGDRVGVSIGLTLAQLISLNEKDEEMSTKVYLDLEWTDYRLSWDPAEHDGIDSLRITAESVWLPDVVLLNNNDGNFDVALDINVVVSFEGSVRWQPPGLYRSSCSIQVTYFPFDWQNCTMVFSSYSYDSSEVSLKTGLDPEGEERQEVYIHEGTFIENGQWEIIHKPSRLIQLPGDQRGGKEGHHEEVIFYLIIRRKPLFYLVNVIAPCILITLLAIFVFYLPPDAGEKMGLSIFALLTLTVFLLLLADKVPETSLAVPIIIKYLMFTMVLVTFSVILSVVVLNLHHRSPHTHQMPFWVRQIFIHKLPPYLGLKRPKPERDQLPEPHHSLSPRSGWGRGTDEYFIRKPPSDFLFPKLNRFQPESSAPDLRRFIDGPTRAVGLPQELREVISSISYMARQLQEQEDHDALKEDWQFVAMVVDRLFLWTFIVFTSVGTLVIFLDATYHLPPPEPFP
T4 sequence (P20782 21-493): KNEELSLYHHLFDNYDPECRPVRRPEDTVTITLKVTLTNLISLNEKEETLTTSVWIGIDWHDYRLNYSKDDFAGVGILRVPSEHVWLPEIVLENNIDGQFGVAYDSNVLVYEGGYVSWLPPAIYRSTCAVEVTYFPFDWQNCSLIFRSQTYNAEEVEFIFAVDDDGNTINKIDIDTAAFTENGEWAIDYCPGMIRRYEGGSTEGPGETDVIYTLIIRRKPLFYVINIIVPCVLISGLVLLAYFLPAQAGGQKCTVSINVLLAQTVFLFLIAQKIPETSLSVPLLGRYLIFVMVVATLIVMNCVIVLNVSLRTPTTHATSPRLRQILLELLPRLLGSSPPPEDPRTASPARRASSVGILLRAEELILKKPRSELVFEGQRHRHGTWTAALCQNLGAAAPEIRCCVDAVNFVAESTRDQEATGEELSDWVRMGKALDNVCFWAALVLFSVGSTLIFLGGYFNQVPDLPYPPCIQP
T4 sequence (P02716 25-520): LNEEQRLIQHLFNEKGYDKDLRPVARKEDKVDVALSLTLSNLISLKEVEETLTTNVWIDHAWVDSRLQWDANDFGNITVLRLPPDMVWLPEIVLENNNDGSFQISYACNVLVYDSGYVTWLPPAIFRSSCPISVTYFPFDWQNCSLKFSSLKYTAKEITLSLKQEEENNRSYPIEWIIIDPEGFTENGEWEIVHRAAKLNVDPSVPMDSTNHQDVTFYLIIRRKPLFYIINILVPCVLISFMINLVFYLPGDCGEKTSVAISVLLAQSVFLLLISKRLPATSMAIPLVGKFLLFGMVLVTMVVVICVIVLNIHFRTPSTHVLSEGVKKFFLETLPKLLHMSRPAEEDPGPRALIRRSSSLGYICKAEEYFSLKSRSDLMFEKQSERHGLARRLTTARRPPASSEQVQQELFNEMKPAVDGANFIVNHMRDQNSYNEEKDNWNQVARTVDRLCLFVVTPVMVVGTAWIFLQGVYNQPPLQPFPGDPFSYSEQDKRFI
T2 sequence (P04757 26-499): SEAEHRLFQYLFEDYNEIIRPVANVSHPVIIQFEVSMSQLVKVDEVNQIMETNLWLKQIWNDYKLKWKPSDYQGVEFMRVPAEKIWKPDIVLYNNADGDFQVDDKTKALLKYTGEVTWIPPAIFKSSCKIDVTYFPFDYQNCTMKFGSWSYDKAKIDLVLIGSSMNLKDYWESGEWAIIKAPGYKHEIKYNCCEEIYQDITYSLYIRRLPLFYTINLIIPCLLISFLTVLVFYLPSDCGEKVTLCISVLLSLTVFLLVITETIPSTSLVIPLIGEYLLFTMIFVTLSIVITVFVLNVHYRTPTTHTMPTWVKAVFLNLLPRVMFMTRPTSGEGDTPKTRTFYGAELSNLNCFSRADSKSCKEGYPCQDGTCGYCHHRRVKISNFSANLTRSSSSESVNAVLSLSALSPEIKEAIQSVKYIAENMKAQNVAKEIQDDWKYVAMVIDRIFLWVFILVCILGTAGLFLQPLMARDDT
T2 sequence (P12392 21-495): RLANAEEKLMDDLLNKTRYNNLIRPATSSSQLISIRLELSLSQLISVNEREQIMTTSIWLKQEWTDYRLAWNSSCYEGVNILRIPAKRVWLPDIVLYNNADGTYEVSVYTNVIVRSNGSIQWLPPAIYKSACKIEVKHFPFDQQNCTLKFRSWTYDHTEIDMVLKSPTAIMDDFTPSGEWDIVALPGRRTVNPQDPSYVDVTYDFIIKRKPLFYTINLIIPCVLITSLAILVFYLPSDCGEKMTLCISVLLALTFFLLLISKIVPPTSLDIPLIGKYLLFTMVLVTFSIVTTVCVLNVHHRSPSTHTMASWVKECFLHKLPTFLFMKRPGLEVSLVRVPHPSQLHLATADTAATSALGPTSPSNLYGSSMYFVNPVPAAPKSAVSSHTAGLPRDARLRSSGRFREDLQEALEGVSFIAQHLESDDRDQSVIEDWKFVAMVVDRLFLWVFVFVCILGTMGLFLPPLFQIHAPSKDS
T3 sequence (P09483 31-630): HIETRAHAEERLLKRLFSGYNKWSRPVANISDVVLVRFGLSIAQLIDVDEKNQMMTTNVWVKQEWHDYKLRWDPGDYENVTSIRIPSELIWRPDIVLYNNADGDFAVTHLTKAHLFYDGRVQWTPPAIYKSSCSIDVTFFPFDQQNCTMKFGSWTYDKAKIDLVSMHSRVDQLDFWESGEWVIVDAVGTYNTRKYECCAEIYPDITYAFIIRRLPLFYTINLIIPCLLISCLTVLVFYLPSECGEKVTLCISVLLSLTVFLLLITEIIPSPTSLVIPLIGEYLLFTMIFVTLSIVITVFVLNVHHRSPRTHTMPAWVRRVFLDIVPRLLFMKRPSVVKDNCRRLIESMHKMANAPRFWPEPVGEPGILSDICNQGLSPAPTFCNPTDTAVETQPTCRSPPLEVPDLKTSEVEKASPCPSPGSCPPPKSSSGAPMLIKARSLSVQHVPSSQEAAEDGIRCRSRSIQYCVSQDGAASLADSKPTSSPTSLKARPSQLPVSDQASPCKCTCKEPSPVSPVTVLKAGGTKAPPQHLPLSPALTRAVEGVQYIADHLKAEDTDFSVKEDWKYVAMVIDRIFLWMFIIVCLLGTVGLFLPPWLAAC
T3 sequence (P12390 25-500): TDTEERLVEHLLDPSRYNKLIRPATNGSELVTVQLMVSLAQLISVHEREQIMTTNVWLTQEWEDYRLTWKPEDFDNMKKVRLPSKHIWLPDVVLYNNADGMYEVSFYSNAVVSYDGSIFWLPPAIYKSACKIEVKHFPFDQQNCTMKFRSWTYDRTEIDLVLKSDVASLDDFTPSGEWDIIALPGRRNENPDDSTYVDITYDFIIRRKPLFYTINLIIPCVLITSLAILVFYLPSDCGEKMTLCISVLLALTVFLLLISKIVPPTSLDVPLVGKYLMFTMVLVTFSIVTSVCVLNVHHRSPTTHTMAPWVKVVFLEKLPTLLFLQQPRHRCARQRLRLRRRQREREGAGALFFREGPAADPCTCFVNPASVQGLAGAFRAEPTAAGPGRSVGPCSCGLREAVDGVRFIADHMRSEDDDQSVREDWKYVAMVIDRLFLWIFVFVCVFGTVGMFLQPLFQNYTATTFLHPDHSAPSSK

Compound: CCCCCCC(=O)OC1CC(C)(C)NC(C)(C)C1 [TMPH, 2,2,6,6-tetramethylpiperidin-4-yl heptanoate]
- reversibility of inhibition ([1]; after a 5-minute wash): significant recovery
- IC50 ([1]; decrease in net charge, 300 μM ACh co-applied with TMPH, read-out: IC50 (area)): 1200 ± 200 nM
- IC50 ([1]; decrease in peak current amplitude, 300 μM ACh co-applied with TMPH, read-out: IC50 (peak)): 1000 ± 100 nM
- IC50 [1, 3]: 16000 ± 4000 nM
- IC50 net charge/IC50 peak ([1]; ratio): 1.2
- IC50 recovery/IC50 net charge ([1]; ratio): 13.3
- reversibility of inhibition (Rat α3β4; after a 5-minute wash): persisted after the wash
- IC50 (Rat α3β4; decrease in net charge, 100 μM ACh co-applied with TMPH, read-out: IC50 (area)): 75 ± 23 nM
- IC50 (Rat α3β4; decrease in peak current amplitude, 100 μM ACh co-applied with TMPH, read-out: IC50 (peak)): 200 ± 50 nM
- IC50 (Rat α3β4; [3]): 85 ± 32 nM
- IC50 net charge/IC50 peak (Rat α3β4; ratio): 0.36
- IC50 recovery/IC50 net charge (Rat α3β4; ratio): 1.1
- inhibition at 0.1 µM (Rat α4β2; 100 nM TMPH, after 3 applications at 10-minute intervals, read-out: inhibition after repeated co-applications of ACh with TMPH): 90%
- use-independent inhibition, TMPH applied alone (Rat α4β2; 1 μM TMPH alone versus co-applied with ACh): almost as effective as when co-applied with ACh
- IC50 (Rat α4β2; decrease in net charge, 10 μM ACh co-applied with TMPH, single co-application, read-out: IC50 (area)): 100 nM and 110 nM
- IC50 (Rat α4β2; decrease in peak current amplitude, 10 μM ACh co-applied with TMPH, read-out: IC50 (peak)): 1400 nM
- reversibility of inhibition (Rat α4β2; following a 5-minute wash): virtually no recovery
- IC50 (Rat α4β2; from shift of the net charge inhibition curve so that 100 nM is the IC90, read-out: equilibrium IC50): ~10 nM
- IC50 (Rat α4β2; [3]): 250 ± 80 nM
- IC50 net charge/IC50 peak (Rat α4β2; ratio): 0.08
- IC50 recovery/IC50 net charge (Rat α4β2; ratio): 2.3
- reversibility of inhibition ([2]; after a 5-minute wash): readily reversible
- IC50 ([2]; decrease in net charge, ACh co-applied with TMPH, read-out: IC50 (area)): 390 ± 50 nM
- IC50 ([2]; decrease in peak current amplitude, ACh co-applied with TMPH, read-out: IC50 (peak)): 276 ± 20 nM
- IC50 [2, 3]: 27000 ± 5500 nM
- IC50 net charge/IC50 peak ([2]; ratio): 1.4
- IC50 recovery/IC50 net charge ([2]; ratio): 69
